In patent publication US20060099225A1 (priority 2004, published 2006):

Legend:
Ebola virus (EBOV) = type: cell-based
[1] = test system: 293T cells transfected with Ebola GP; type: cell-based, human

Which results are given for `CCCCC[C@@H](O)[C@H]1C(=O)O[C@H](C)[C@@H](O)/C=C/C=C/C=C/C=C/C=C(\C)[C@@H](O)C[C@H](O)C[C@H](O)C[C@H](O)C[C@H](O)C[C@H](O)C[C@@H]1O` [filipin]?
EBOV infection, viral titer 48 hour post infection (Ebola virus (EBOV)): significant inhibition of EBOV infection; virus production when cells recover in medium 4 h after treatment before infection (Ebola virus (EBOV)): could produce large amounts of virus; general cytotoxic effect, trypan blue exclusion (Vero E6 cells): cells were shown to be viable

With methyl-β-cyclodextrin as the molecule, how does the “association of Ebola GP with rafts (detergent insoluble fraction) after pre-treatment” value [1] read?
The value was “almost complete removal of Ebola GP from rafts”.

How did the “general cytotoxic effect, trypan blue exclusion” value (Vero E6 cells) turn out when nystatin was run?
Its value is “cells were shown to be viable”.
